Measurements as given in patent US12338220B2, “Antiviral pyrazolopiridinone compounds” (Novartis AG, priority 2019, dated 2025).
Like-named read-outs stand apart in the source and are kept apart here.

Assays:
CMV-polymerase = CMV-polymerase (Human cytomegalovirus (strain AD169) (HHV-5) (Human herpesvirus 5), UniProt P08546); assay: biochemical
CMV = assay: microbe, parasite or virus in culture; format: cell-based; settings: Human betaherpesvirus 5, 72 h, read-out: CMV-Luc Cellular EC50, NN-NHDF cells, MOI 1, 72 hrs
[1] = read-out: CMV-polymerase Biochemical IC50
[2] = CMV-polymerase Biochemical IC50

SMILES	IC50 (CMV-polymerase; [1])	EC50 (CMV)	IC50 (CMV-polymerase; [2])
Cc1cccc(NS(=O)(=O)C2(CN3CCc4c(C(=O)NCc5ccc(C#N)cc5)nn(C)c4C3=O)CC2)n1 [Example 157, N-(4-Cyanobenzyl)-1-methyl-6-((1-(N-(6-methylpyridin-2-yl)sulfamoyl)cyclopropyl)methyl)-7-oxo-4,5,6,7-tetrahydro-1H-pyrazolo[3,4-c]pyridine-3-carboxamide]	2 nM	58 nM	
Cn1nc(C(=O)NCc2ccc(C#N)cc2)c2c1C(=O)N(CC1(S(=O)(=O)NC(C)(C)CO)CC1)CC2 [Example 149, N-(4-Cyanobenzyl)-6-((1-(N-(1-hydroxy-2-methylpropan-2-yl)sulfamoyl)cyclopropyl)methyl)-1-methyl-7-oxo-4,5,6,7-tetrahydro-1H-pyrazolo[3,4-c]pyridine-3-carboxamide]	12 nM	166 nM	
Cn1nc(C(=O)NCc2ccc(C#N)cc2)c2c1C(=O)N(CC1(S(=O)(=O)C3(CCO)CC3)CC1)CC2 [Example 117, N-(4-Cyanobenzyl)-6-((1-((1-(2-hydroxyethyl)cyclopropyl)sulfonyl)cyclopropyl)methyl)-1-methyl-7-oxo-4,5,6,7-tetrahydro-1H-pyrazolo[3,4-c]pyridine-3-carboxamide]	4 nM	35 nM	
CCC(=O)Cn1nc(C(=O)NCc2ccc(C#N)cc2)c2c1C(=O)N(CC1(S(=O)(=O)C3CC3)CC1)CC2 [Example 227, N-(4-Cyanobenzyl)-6-((1-(cyclopropylsulfonyl)cyclopropyl)methyl)-7-oxo-1-(2-oxobutyl)-4,5,6,7-tetrahydro-1H-pyrazolo[3,4-c]pyridine-3-carboxamide]		28 nM	1 nM
Cc1ccc(CNC(=O)c2nn(C)c3c2CCN(CC2(S(=O)(=O)C4CC4)CC2)C3=O)cc1 [Example 8, 6-((1-(Cyclopropylsulfonyl)cyclopropyl)methyl)-1-methyl-N-(4-methylbenzyl)-7-oxo-4,5,6,7-tetrahydro-1H-pyrazolo[3,4-c]pyridine-3-carboxamide]	35 nM	339 nM	
Cn1nc(C(=O)NCc2ccc(C#N)cc2)c2c1C(=O)N(CC1(S(C)(=O)=O)CC1)CC2 [Example 21, N-(4-Cyanobenzyl)-1-methyl-6-((1-(methylsulfonyl)cyclopropyl)methyl)-7-oxo-4,5,6,7-tetrahydro-1 H-pyrazolo[3,4-c]pyridine-3-carboxamide]	9 nM	147 nM	
Cn1nc(C(=O)NCc2ccc(C#N)cc2)c2c1C(=O)N(CC1(S(=O)(=O)C(C)(C)CN3CC(F)C3)CC1)CC2 [Example 60, N-(4-Cyanobenzyl)-6-((1-((1-(3-fluoroazetidin-1-yl)-2-methylpropan-2-yl)sulfonyl)cyclopropyl)methyl)-1-methyl-7-oxo-4,5,6,7-tetrahydro-1H-pyrazolo[3,4-c]pyridine-3-carboxamide]		62 nM	2 nM
Cn1nc(C(=O)NCc2ccc(C#N)cc2)c2c1C(=O)N(CC1(S(=O)(=O)C(C)(C)CNC(=O)CN)CC1)CC2 [Example 74, 6-((1-((1-(2-Aminoacetamido)-2-methylpropan-2-yl)sulfonyl)cyclopropyl)methyl)-N-(4-cyanobenzyl)-1-methyl-7-oxo-4,5,6,7-tetrahydro-1H-pyrazolo[3,4-c]pyridine-3-carboxamide]	3 nM	148 nM	
Cn1nc(C(=O)NCc2ccc(C#N)cc2)c2c1C(=O)N(CC1(S(=O)(=O)NCCCN)CC1)CC2 [Example 134, 6-((1-(N-(3-Aminopropyl)sulfamoyl)cyclopropyl)methyl)-N-(4-cyanobenzyl)-1-methyl-7-oxo-4,5,6,7-tetrahydro-1H-pyrazolo[3,4-c]pyridine-3-carboxamide]	31 nM	443 nM	
CC1(C)C(=O)NCCOCCn2nc(C(=O)NCc3ccc(C#N)cc3)c3c2C(=O)N(CC3)CC2(CC2)S1(=O)=O [Example 241, Lactam macrocycle N-(4-cyanobenzyl)carboxamide]		467 nM	13 nM
Cn1nc(C(=O)NCc2ccc(C#N)cc2)c2c1C(=O)N(CC1(S(=O)(=O)N3CC[C@H](N)C3)CC1)CC2 [Example 142, (S)-6-((1-((3-Aminopyrrolidin-1-yl)sulfonyl)cyclopropyl)methyl)-N-(4-cyanobenzyl)-1-methyl-7-oxo-4,5,6,7-tetrahydro-1H-pyrazolo[3,4-c]pyridine-3-carboxamide]	18 nM	66 nM	
Cn1nc(C(=O)NCc2ccc(C#N)cc2)c2c1C(=O)N(CC1(S(=O)(=O)C(C)(CN)CO)CC1)CC2 (stereo not drawn) [Example 183, 6-((1-((1-Amino-3-hydroxy-2-methylpropan-2-yl)sulfonyl)cyclopropyl)methyl)-N-(4-cyanobenzyl)-1-methyl-7-oxo-4,5,6,7-tetrahydro-1H-pyrazolo[3,4-c]pyridine-3-carboxamide]	5 nM	220 nM	
Cn1nc(C2=NOC(c3ccc(C#N)cc3)C2)c2c1C(=O)N(CC1(S(=O)(=O)C3CC3)CC1)CC2 (stereo not drawn) [Example 31, 4-(3-(6-((1-(Cyclopropylsulfonyl)cyclopropyl)methyl)-1-methyl-7-oxo-4,5,6,7-tetrahydro-1H-pyrazolo[3,4-c]pyridin-3-yl)-4,5-dihydroisoxazol-5-yl)benzonitrile]		101 nM	12 nM
Cn1nc(C(=O)NCc2ccc(C#N)cc2)c2c1C(=O)N(CC1(S(=O)(=O)C3(C)COC3)CC1)CC2 [Example 172, N-(4-Cyanobenzyl)-1-methyl-6-((1-((3-methyloxetan-3-yl)sulfonyl)cyclopropyl)methyl)-7-oxo-4,5,6,7-tetrahydro-1H-pyrazolo[3,4-c]pyridine-3-carboxamide]		69 nM	5 nM
Cn1nc(C(=O)NCc2ccc(C#N)cc2)c2c1C(=O)N(CC1(S(=O)(=O)C(C)(C)COC(F)F)CC1)CC2 [Example 58, N-(4-Cyanobenzyl)-6-((1-((1-(difluoromethoxy)-2-methylpropan-2-yl)sulfonyl)cyclopropyl)methyl)-1-methyl-7-oxo-4,5,6,7-tetrahydro-1H-pyrazolo[3,4-c]pyridine-3-carboxamide]	1 nM	25 nM	
Cn1nc(C(=O)NCc2ccc(C#N)cn2)c2c1C(=O)N(CC1(S(=O)(=O)C3CC3)CC1)CC2 [Example 14, N-((5-Cyanopyridin-2-yl)methyl)-6-((1-(cyclopropylsulfonyl)cyclopropyl)methyl)-1-methyl-7-oxo-4,5,6,7-tetrahydro-1H-pyrazolo[3,4-c]pyridine-3-carboxamide]	95 nM	585 nM	
Cn1nc(C(=O)N[C@H](CO)c2ccc(Cl)cc2)c2c1C(=O)N(CC1(S(=O)(=O)C3CC3)CC1)CC2 [Example 19, (S)-N-(1-(4-Chlorophenyl)-2-hydroxyethyl)-6-((1-(cyclopropylsulfonyl)cyclopropyl)methyl)-1-methyl-7-oxo-4,5,6,7-tetrahydro-1H-pyrazolo[3,4-c]pyridine-3-carboxamide]	55 nM	> 10000 nM	
CC(C)(O)Cn1nc(C(=O)NCc2ccc(C#N)cc2)c2c1C(=O)N(CC1(S(C)(=O)=O)CC1)CC2 [Example 232, N-(4-Cyanobenzyl)-1-(2-hydroxy-2-methylpropyl)-6-((1-(methylsulfonyl)cyclopropyl)methyl)-7-oxo-4,5,6,7-tetrahydro-1H-pyrazolo[3,4-c]pyridine-3-carboxamide]	6 nM	160 nM	
Cn1nc(C(=O)NCc2ccc(C#N)cc2)c2c1C(=O)N(CC1(S(=O)(=O)C(C)(C)CN3CC4CC(C3)O4)CC1)CC2 [Example 63, 6-((1-((1-(6-Oxa-3-azabicyclo[3.1.1]heptan-3-yl)-2-methylpropan-2-yl)sulfonyl)cyclopropyl)methyl)-N-(4-cyanobenzyl)-1-methyl-7-oxo-4,5,6,7-tetrahydro-1H-pyrazolo[3,4-c]pyridine-3-carboxamide]	6 nM	220 nM	
Cn1nc(C(=O)NCc2ccc(C#N)cc2)c2c1C(=O)N(CC1(S(=O)(=O)N3CC[C@@H](O)C3)CC1)CC2 [Example 126, (R)-N-(4-Cyanobenzyl)-6-((1-((3-hydroxypyrrolidin-1-yl)sulfonyl)cyclopropyl)methyl)-1-methyl-7-oxo-4,5,6,7-tetrahydro-1H-pyrazolo[3,4-c]pyridine-3-carboxamide]	4 nM	118 nM	
Cn1nc(-c2noc(Cc3ccc(C#N)cc3)n2)c2c1C(=O)N(CC1(S(=O)(=O)C3CC3)CC1)CC2 [Example 28, 4-((3-(6-((1-(Cyclopropylsulfonyl)cyclopropyl)methyl)-1-methyl-7-oxo-4,5,6,7-tetrahydro-1H-pyrazolo[3,4-c]pyridin-3-yl)-1,2,4-oxadiazol-5-yl)methyl)benzonitrile]		24 nM	1 nM
CN(CCO)S(=O)(=O)C1(CN2CCc3c(C(=O)NCc4ccc(Cl)cc4)nn(C)c3C2=O)CC1 [Example 144, N-(4-Chlorobenzyl)-6-((1-(N-(2-hydroxyethyl)-N-methylsulfamoyl)cyclopropyl)methyl)-1-methyl-7-oxo-4,5,6,7-tetrahydro-1H-pyrazolo[3,4-c]pyridine-3-carboxamide]	4 nM	44 nM	
Cn1nc(-c2nnn(Cc3ccc(C#N)cc3)n2)c2c1C(=O)N(CC1(S(=O)(=O)C3CC3)CC1)CC2 [Example 29, 4-((5-(6-((1-(Cyclopropylsulfonyl)cyclopropyl)methyl)-1-methyl-7-oxo-4,5,6,7-tetrahydro-1H-pyrazolo[3,4-c]pyridin-3-yl)-2H-tetrazol-2-yl)methyl)benzonitrile]	1 nM	80 nM	
C[C@@H](NC(=O)c1nn(C)c2c1CCN(CC1(S(=O)(=O)C3CC3)CC1)C2=O)c1ccc(C#N)cc1 [Example 17, (R)-N-(1-(4-Cyanophenyl)ethyl)-6-((1-(cyclopropylsulfonyl)cyclopropyl)methyl)-1-methyl-7-oxo-4,5,6,7-tetrahydro-1H-pyrazolo[3,4-c]pyridine-3-carboxamide]	16900 nM	> 10000 nM	
